Calls of active or inactive are those of the source. No rule for the calls is given here.
System: CCRIS mutagenicity, Ames/micronucleus/aberration tests
Experiment: CCRIS mutagenicity studies
[1] = Test System: AMES SALMONELLA TYPHIMURIUM, Strain/Indicator: TA98, Metabolic Activation: NONE, Method: STANDARD PLATE
[2] = Test System: AMES SALMONELLA TYPHIMURIUM, Strain/Indicator: TA100, Metabolic Activation: NONE, Method: STANDARD PLATE

Measured: mutagenic call

CCCCC(CC)COC(=O)c1ccc(N(C)C)c([N+](=O)[O-])c1 (configuration not stated)
active: Test System: AMES SALMONELLA TYPHIMURIUM, Strain/Indicator: TA98, Metabolic Activation: HAMSTER, LIVER, S-9, AROCLOR 1254 (10%), Method: STANDARD PLATE active; positive | Test System: AMES SALMONELLA TYPHIMURIUM, Strain/Indicator: TA98, Metabolic Activation: HAMSTER, LIVER, S-9, AROCLOR 1254, Method: STANDARD PLATE active; positive | [1] active; positive | Test System: AMES SALMONELLA TYPHIMURIUM, Strain/Indicator: TA98, Metabolic Activation: RAT, LIVER, S-9, AROCLOR 1254 (10%), Method: STANDARD PLATE active; positive | Test System: AMES SALMONELLA TYPHIMURIUM, Strain/Indicator: TA98, Metabolic Activation: RAT, LIVER, S-9, AROCLOR 1254, Method: STANDARD PLATE active; positive | Test System: AMES SALMONELLA TYPHIMURIUM, Strain/Indicator: TA1537, Metabolic Activation: HAMSTER, LIVER, S-9, AROCLOR 1254 (10%), Method: STANDARD PLATE active; positive | Test System: AMES SALMONELLA TYPHIMURIUM, Strain/Indicator: TA1537, Metabolic Activation: HAMSTER, LIVER, S-9, AROCLOR 1254, Method: STANDARD PLATE active; positive | Test System: AMES SALMONELLA TYPHIMURIUM, Strain/Indicator: TA1537, Metabolic Activation: NONE, Method: STANDARD PLATE active; positive | Test System: AMES SALMONELLA TYPHIMURIUM, Strain/Indicator: TA1537, Metabolic Activation: RAT, LIVER, S-9, AROCLOR 1254 (10%), Method: STANDARD PLATE active; positive | Test System: AMES SALMONELLA TYPHIMURIUM, Strain/Indicator: TA1537, Metabolic Activation: RAT, LIVER, S-9, AROCLOR 1254, Method: STANDARD PLATE active; positive | Test System: AMES SALMONELLA TYPHIMURIUM, Strain/Indicator: TA1538, Metabolic Activation: HAMSTER, LIVER, S-9, AROCLOR 1254 (10%), Method: STANDARD PLATE active; positive | Test System: AMES SALMONELLA TYPHIMURIUM, Strain/Indicator: TA1538, Metabolic Activation: HAMSTER, LIVER, S-9, AROCLOR 1254, Method: STANDARD PLATE active; positive | Test System: AMES SALMONELLA TYPHIMURIUM, Strain/Indicator: TA1538, Metabolic Activation: NONE, Method: STANDARD PLATE active; positive | Test System: AMES SALMONELLA TYPHIMURIUM, Strain/Indicator: TA1538, Metabolic Activation: RAT, LIVER, S-9, AROCLOR 1254 (10%), Method: STANDARD PLATE active; positive | Test System: AMES SALMONELLA TYPHIMURIUM, Strain/Indicator: TA1538, Metabolic Activation: RAT, LIVER, S-9, AROCLOR 1254, Method: STANDARD PLATE active; positive
inactive: Test System: AMES SALMONELLA TYPHIMURIUM, Strain/Indicator: TA100, Metabolic Activation: HAMSTER, LIVER, S-9, AROCLOR 1254 (10%), Method: STANDARD PLATE inactive; negative | Test System: AMES SALMONELLA TYPHIMURIUM, Strain/Indicator: TA100, Metabolic Activation: HAMSTER, LIVER, S-9, AROCLOR 1254, Method: STANDARD PLATE inactive; negative | [2] inactive; negative | Test System: AMES SALMONELLA TYPHIMURIUM, Strain/Indicator: TA100, Metabolic Activation: RAT, LIVER, S-9, AROCLOR 1254 (10%), Method: STANDARD PLATE inactive; negative | Test System: AMES SALMONELLA TYPHIMURIUM, Strain/Indicator: TA100, Metabolic Activation: RAT, LIVER, S-9, AROCLOR 1254, Method: STANDARD PLATE inactive; negative | Test System: AMES SALMONELLA TYPHIMURIUM, Strain/Indicator: TA1535, Metabolic Activation: HAMSTER, LIVER, S-9, AROCLOR 1254 (10%), Method: STANDARD PLATE inactive; negative | Test System: AMES SALMONELLA TYPHIMURIUM, Strain/Indicator: TA1535, Metabolic Activation: HAMSTER, LIVER, S-9, AROCLOR 1254, Method: STANDARD PLATE inactive; negative | Test System: AMES SALMONELLA TYPHIMURIUM, Strain/Indicator: TA1535, Metabolic Activation: NONE, Method: STANDARD PLATE inactive; negative | Test System: AMES SALMONELLA TYPHIMURIUM, Strain/Indicator: TA1535, Metabolic Activation: RAT, LIVER, S-9, AROCLOR 1254 (10%), Method: STANDARD PLATE inactive; negative | Test System: AMES SALMONELLA TYPHIMURIUM, Strain/Indicator: TA1535, Metabolic Activation: RAT, LIVER, S-9, AROCLOR 1254, Method: STANDARD PLATE inactive; negative

C1=CCCCC1
active: Test System: Ames Salmonella typhimurium, Strain/Indicator: TA2637, Metabolic Activation: None, Method: Preincubation active; positive
inactive: [1] inactive; negative | Test System: AMES SALMONELLA TYPHIMURIUM, Strain/Indicator: TA98, Metabolic Activation: RAT LIVER S-9, SOVOL, Method: STANDARD PLATE inactive; negative | [2] inactive; negative | Test System: AMES SALMONELLA TYPHIMURIUM, Strain/Indicator: TA100, Metabolic Activation: RAT LIVER S-9, SOVOL, Method: STANDARD PLATE inactive; negative | Test System: Ames Salmonella typhimurium, Strain/Indicator: TA98, Metabolic Activation: None, Method: Preincubation inactive; negative | Test System: Ames Salmonella typhimurium, Strain/Indicator: TA98, Metabolic Activation: Rat, Liver, S9, Sodium phenobarbital and 5,6-benzoflavone (10%), Method: Preincubation inactive; negative | Test System: Ames Salmonella typhimurium, Strain/Indicator: TA100, Metabolic Activation: None, Method: Preincubation inactive; negative | Test System: Ames Salmonella typhimurium, Strain/Indicator: TA100, Metabolic Activation: Rat, Liver, S9, Sodium phenobarbital and 5,6-benzoflavone (10%), Method: Preincubation inactive; negative | Test System: Ames Salmonella typhimurium, Strain/Indicator: TA1535, Metabolic Activation: None, Method: Preincubation inactive; negative | Test System: Ames Salmonella typhimurium, Strain/Indicator: TA1535, Metabolic Activation: Rat, Liver, S9, Sodium phenobarbital and 5,6-benzoflavone (10%), Method: Preincubation inactive; negative | Test System: Ames Salmonella typhimurium, Strain/Indicator: TA1537, Metabolic Activation: None, Method: Preincubation inactive; negative | Test System: Ames Salmonella typhimurium, Strain/Indicator: TA1537, Metabolic Activation: Rat, Liver, S9, Sodium phenobarbital and 5,6-benzoflavone (10%), Method: Preincubation inactive; negative | Test System: Ames Salmonella typhimurium, Strain/Indicator: TA2637, Metabolic Activation: Rat, Liver, S9, Sodium phenobarbital and 5,6-benzoflavone (10%), Method: Preincubation inactive; negative | Test System: E. coli, Strain/Indicator: WP2uvrA/pKM101, Metabolic Activation: None, Method: Preincubation inactive; negative | Test System: E. coli, Strain/Indicator: WP2uvrA/pKM101, Metabolic Activation: Rat, Liver, S9, Sodium phenobarbital and 5,6-benzoflavone (10%), Method: Preincubation inactive; negative

Nc1ncnc2c1ncn2[C@@H]1O[C@H](CO)[C@@H](O)[C@@H]1O
active: Test System: CHINESE HAMSTER OVARY, Strain/Indicator: CHO/6-THIOGUANINE, Metabolic Activation: NONE active; positive
